Measured values taken from patent US20090137554A1, “1,4,5,6-TETRAHYDRO -PYRROLO[2,3-d]AZEPINES AND -IMIDAZO[4,5-d]AZEPINES AS MODULATORS OF NUCLEAR RECEPTOR ACTIVITY” (Wyeth, priority 2007, published 2009).

Target: T1, Gal4/hFXR fusion protein (Homo sapiens, UniProt Q96RI1)
T1 sequence (Q96RI1 262-486 limits assumed): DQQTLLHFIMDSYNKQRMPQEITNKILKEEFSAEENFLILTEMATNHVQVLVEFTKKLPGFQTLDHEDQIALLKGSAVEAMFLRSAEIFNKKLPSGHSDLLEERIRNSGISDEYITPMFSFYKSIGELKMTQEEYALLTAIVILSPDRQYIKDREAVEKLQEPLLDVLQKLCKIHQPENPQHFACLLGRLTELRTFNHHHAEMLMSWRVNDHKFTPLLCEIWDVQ
Assay: Gal4/hFXR fusion protein agonist activity in human 293 cells (luciferase reporter)
Assay type: cell-based
Settings: Human 293 stable clone 2 expressing Gal4/hFXR, 24 hours incubation
Method: Characterization of Compounds for Gal4/hFXR Fusion Protein Agonist Activity in Human 293 Cells
• 1. Compounds to be tested are prepared as 2× stocks in assay medium. • 2. […] The supernatant is removed and the cells are resuspended in 1 ml assay medium. The cells are counted and diluted in assay medium to 200,000 cells per ml. The cells are then plated at 10,000 cells per well in Culturplate-96 plates in 50 μL assay medium. The cells are incubated at 37° C. for approximately 1 hour. • 3. […] All assays include 1 uM GW4064 as a reference standard. • 4. Cells are incubated for 24 hours at 37° C.
• 5. The medium is removed, and the cells are lysed in 25 uL lysis buffer (Promega, E3971). • 6. The plates are analyzed for luciferase activity with luciferase assay reagent (Promega E1483). Plates are read on Victor^3V instrument using the protocol “Shuguang Luciferase assay” (dispense volume=100 uL, plate type=“Packard Viewplate”, measurement height=8 mm from bottom of plate, 5 second read per well).
• 1. For agonist single point screening, data are analyzed in Excel. Each compound is tested in triplicate. The fold stimulation of each compound is calculated as RLUcpd/RLUbkgd. • 2. Comparison to GW4064 is made by the equation (RLUcpd/RLUbkgd)/(RLUGW4064/RLUbkgd) • 3. For agonist potency determinations, statistical analysis of the data is performed using a customized Excel/SAS program.

Structure (SMILES) | EC50
CC(C)OC(=O)C1=CN(C(=O)c2cccs2)CC(C)(C)c2cc(C#N)[nH]c21 [Example 7, iso-Propyl 2-cyano-4,4-dimethyl-6-(2-thienylcarbonyl)-1,4,5,6-tetrahydropyrrolo[2,3-d]azepine-8-carboxylate] | 22 nM
CC(C)OC(=O)C1=CN(C(=O)c2ccc(F)c(F)c2)CC2(CCOCC2)c2cc(C#N)[nH]c21 [Example 10, iso-Propyl 2′-cyano-6′-(3,4-difluorobenzoyl)-2,3,5,5′,6,6′-hexahydro-1′H-spiro[pyran-4,4′-pyrrolo[2,3-d]azepine]-8′carboxylate] | 86 nM

Continued by falling EC50, values first:

EC50 | Structure (SMILES)
8.9 nM | CC(C)OC(=O)C1=CN(C(=O)C2CCOCC2)CC(C)(C)c2cc(C#N)[nH]c21 [Example 9, iso-Propyl 2-cyano-4,4-dimethyl-6-(tetrahydro-2H-pyran-4-ylcarbonyl)-1,4,5,6-tetrahydropyrrolo[2,3-d]azepine-8-carboxylate]
8 nM | CC(C)OC(=O)C1=CN(C(=O)c2cccc(C(F)(F)F)c2)CC(C)(C)c2cc(C#N)[nH]c21 [Example 8, iso-Propyl 2-cyano-4,4-dimethyl-6-[3-(trifluoromethyl)benzoyl]-1,4,5,6-tetrahydropyrrolo[2,3-d]azepine-8-carboxylate]
5.3 nM | CC(C)OC(=O)C1=CN(C(=O)c2ccc(F)c(F)c2)CC(C)(C)c2cc(C#N)[nH]c21 [Example 1, iso-Propyl 2-cyano-6-(3,4-difluorobenzoyl)-4,4-dimethyl-1,4,5,6-tetrahydropyrrolo[2,3-d]azepine-8-carboxylate]
